Patent US20150197802A1 (priority 2012, published 2015)
Like-named read-outs stand apart in the source and are kept apart here.

Key:
renal proximal tubule = details: cited from earlier work; for classification of the test compound with regard to nephrotoxicity: group of the test compound; for nephrotoxic effects in humans: clinical, clinically relevant concentrations
[1] = tested on: human primary renal proximal tubular cells (HPTC); test: IL-6 and IL-8 expression (qPCR) in renal proximal tubular cells after 16 h exposure
HPTC = format: cell-based, human

Compound: [Cl][Cu][Cl] [CuCl2]
- classification of the test compound with regard to nephrotoxicity (renal proximal tubule): PT-specific nephrotoxin

Compound: CN(C)[C@@H]1C(O)=C(C(N)=O)C(=O)[C@@]2(O)C(O)=C3C(=O)c4c(O)cccc4[C@@](C)(O)[C@H]3C[C@@H]12 [tetracycline]
- test result in the IL-6/IL-8 expression method (positive = predicted PT-specific nephrotoxin) ([1]; 1 μg/ml to 1000 μg/ml, 16 h): positive
- nephrotoxic effects in humans (renal proximal tubule): usually no obvious nephrotoxic effects, but can induce AKI and ESRD in patients with pre-existing kidney disease

Compound: C[C@@H]1C[C@H]2[C@@H]3CCC4=CC(=O)C=C[C@]4(C)[C@@]3(F)[C@@H](O)C[C@]2(C)[C@@]1(O)C(=O)CO [dexamethasone]
- classification of the test compound with regard to nephrotoxicity (renal proximal tubule): not nephrotoxic

Compound: [Cl][Cd][Cl] [CdCl2]
- IL-8 expression, up-regulation compared with the other marker genes tested (HPTC; two batches of HPTC, high doses (2.5 mg/ml gentamicin, 10 mg/ml CdCl2), FIG. 1): highest levels of up-regulation

Compound: gentamicin
- IL-8 expression, up-regulation compared with the other marker genes tested (HPTC): highest levels of up-regulation

Compound: N.N.[Cl][Pt][Cl] [cisplatin]
- cell death ([1]; HPTC 1, highest concentration tested, dose-response FIG. 2): massive cell death

Compound: C[C@H](Cn1cnc2c(N)ncnc21)OCP(=O)(O)O [tenofovir]
- nephrotoxic effects in humans (renal proximal tubule): injures the renal proximal tubules

Compound: OCCO [ethylene glycol]
- classification of the test compound with regard to nephrotoxicity (renal proximal tubule): non-PT-specific nephrotoxin
